# Where a name gives a salt, the structure may show the parent alone.
# Key:
# Type in all cases: in vivo
# Tsk-1 mice = test: Tight skin-1 (Tsk-1) mouse model of systemic sclerosis; conditions: 50 mg/kg/day IP, 6 weeks
# Description: The antifibrotic effects of the JNK inhibitor Compound JNKi-1 were tested in a murine tight skin-1 (Tsk-1) model of systemic sclerosis. In this model, a dominant mutation in the fibrillin 1 gene (Fbn1^Tsk+/−) leads to a systemic sclerosis-like disease with inflammatory infiltrates and massive fibrosis of the skin (Akhmetshina A, Venalis P, Dees C, Busch N, Zwerina J, Schett G, et al., Treatment with imatinib prevents fibrosis in different preclinical models of systemic sclerosis and induces regression of established fibrosis, Arthritis Rheum. 2009; 60(1):219-24).
# Male and female TSK-1 mice were used. Mice were fed a standard diet with water ad libitum. The room temperature was kept constant at 22° C. with a humidity of 60%.
# Compound JNKi-1 was dissolved in 0.5% carboxymethylcellulose (CMC)/0.25% Tween 80 in water. As vehicle control a solution of 0.5% CMC/0.25% Tween 80 in water was used. Imatinib mesylate was dissolved in 0.9% NaCl at a concentration of 50 mg/kg/day in a total volume of 100 μL.
# Groups of Tsk-1 mice (n=4/sex/group) were assigned to one of five treatment groups: • Untreated wildtype (Fbn1^Tsk−/−) group received 0.5% CMC/0.25% Tween 80 in water orally (PO) twice daily (BID). • Untreated Fbn1Tsk+/− mice received 0.5% CMC/0.25% Tween 80 in water orally BID. • Compound JNKi-1-treated Fbn1^Tsk+/− received 50 mg/kg orally BID. • Compound JNKi-1-treated Fbn1^Tsk+/− received 150 mg/kg orally BID. • Imatinib mesylate-treated Fbn1^Tsk+/− group received 50 mg/kg/day administered intraperitoneally (IP).
# Treatments with Compound JNKi-1 and control compound were started at Week 4. After 6 weeks of treatment, mice were sacrificed, and the antifibrotic effects from each treatment were analyzed.
# Antifibrotic effects were determined by measuring the dermal thickness and quantifying the numbers of myofibroblasts in the lesional skin. Dermal thickness was determined by measuring the distance from the epidermal/dermal border to the dermal/subdermal border in H & E-stained sections at four different sites. The number of myofibroblasts was quantified by staining for alpha smooth muscle actin (α-SMA) in paraffin-embedded sections. Data are expressed as mean±standard error of the mean (SEM). SPSS17.0 software and the Mann-Whitney-U-test were used for statistical analyses. A p-value of less than 0.05 was considered statistically significant.
# [1] = system: DBA/2J mice, bleomycin-induced skin fibrosis; test: Bleomycin-induced dermal fibrosis mouse model (preventive treatment); conditions: 50 mg/kg/day IP, mean±SEM
# Description: The selective JNK inhibitor Compound JNKi-1 was tested in a bleomycin-induced dermal fibrosis mouse model, which is considered to represent the early and inflammatory stages of systemic sclerosis (Akhmetshina A, Venalis P, Dees C, Busch N, Zwerina J, Schett G, Distler O, Distler J H, Treatment with imatinib prevents fibrosis in different preclinical models of systemic sclerosis and induces regression of established fibrosis, Arthritis Rheum. 2009; 60(1):219-24). […] In animal models it will similarly induce injury and fibrosis at the site of delivery.
# Male and female DBA/2J mice were used. Mice were fed a standard diet with water ad libitum. The room temperature was kept constant at 22° C. with a humidity of 60%.
# Compound JNKi-1 was dissolved in 0.5% carboxymethylcellulose (CMC)/0.25% Tween 80 in water. Bleomycin was dissolved in 0.9% sodium chloride (NaCl) at a concentration of 0.5 mg/mL in a total volume of 100 μL. The positive control compound Imatinib mesylate was dissolved in 0.9% NaCl at a concentration of 50 mg/kg/day in a total volume of 100 μL.
# Two different dose levels of the JNK-inhibitor Compound JNKi-1 (50 mg/kg and 150 mg/kg, administered twice daily) were used to analyze the anti-fibrotic activity in a mouse model of bleomycin-induced skin fibrosis. […] DBA/2J mice (n=5/sex/group) were assigned to one of five treatment groups: • Control group: 0.5% CMC/0.25% Tween 80 in water orally (PO) twice daily (BID) and subcutaneous injections of 100 μL 0.9% NaCl. • Untreated bleomycin group: intradermal injection of bleomycin and 0.5% CMC/0.25% Tween 80 in water orally BID. • 50 mg/kg Compound JNKi-1: intradermal injection of bleomycin and Compound JNKi-1 orally BID. • 150 mg/kg Compound JNKi-1: intradermal injection of bleomycin and Compound JNKi-1 orally BID. • Positive control group: intradermal injection of bleomycin and imatinib 50 mg/kg/day administered intraperitoneally (IP).
# Localized dermal fibrosis was induced by injection of bleomycin every other day for 3 weeks in defined areas of the upper back. Compound JNKi-1 or imatinib was administrated starting from the first dose of bleomycin.
# The dermal thickness was determined by staining with hematoxylin and eosin (H & E). The activated fibroblasts (myofibroblasts) at the fibrotic lesions were quantified by immunohistochemistry (IHC) for alpha smooth muscle actin (α-SMA). Collagen concentration in lesional skin was analyzed by hydroxyproline assay. Data are expressed as mean±standard error of the mean (SEM). SPSS17.0 software and the Mann-Whitney-U-test were used for statistical analyses. A p-value of less than 0.05 was considered statistically significant.
# CD-IGS rats = test: Rat model of excisional wound healing; conditions: 0.5 mg/kg qd orally
# Description: Male CD-IGS rats (Strain code 001; n=32-52 per experiment) were obtained from Charles River Laboratories at a body weight of 175-195 g. Rats were housed in regular shoebox cages and allowed to become acclimated for a minimum of 1 week. Rats were fed Harlan Teklad (No. 7001) 4% mouse/rat diet and water ad libitum and were maintained on a 12-hour light/dark cycle.
# Suspensions of Compound JNKi-1 were prepared in aqueous 0.5% CMC and 0.25% Tween-80. The formulations were homogenized using a TEFLON® pestle and mortar (Potter-Elvehjem tissue grinder). Vehicle (aqueous solution of 0.5% carboxymethylcellulose, and 0.25% Tween-80) and test article compounds were dosed at a volume of 5 mL/kg. Groups of rats (n=4-8/group) were dosed orally with vehicle, Dexamethasone (0.5 mg/kg) or Compound JNKi-1 (10 mg/kg, 30 mg/kg or 60 mg/kg) daily throughout the study starting 4 days prior to the procedure and continuing for up to […]. Compound JNKi-1 treated groups and the respective vehicle control group were dosed twice daily (bid) with an 8 hr separation between the doses. Dexamethasone treated animals and the respective vehicle control group were dosed once daily (qd) for the duration of the study.
# Rats were anesthetized by inhaled isoflurane and the dorsal area was shaved and swabbed with 70% alcohol. Two points were marked 5.5 and 8.5 cm from the base of the skull along the midline. Four further points were marked 1 cm at either side of the midline, two at each of the marked points. These delineated the centers of four excisional wounds. The biopsy punch (6 mm diameter) was aligned vertically over the center of a mark and the epidermis, dermis and panniculus carnosus pierced by applying pressure and twisting at the same time. The skin plug was then removed. This was repeated for the remaining wounds (FIG. 15). The animal was then allowed to recover. All animals were housed singly during the experiment. Rats were monitored twice a day for the first 24 hours following the procedure and then daily until the end of the study. Body weights were recorded two or three times per week. Animals were sacrificed via CO2 asphyxiation at various time-points (day 1, 5, 10 or 14) following wounding.
# Each wound size was measured using an electronic digital caliper and the percent of wound remaining open was calculated relative to the initial wound size recorded on day 0 (day of wounding procedure). Four values were averaged for each animal (four wounds on each rat). Measurements were taken at different time-points throughout the study.
# Wounds and 2 mm of surrounding tissue were excised using an 8 mm biopsy punch. Wounds were harvested on days 1, 5, 10 and 14 following the procedure. Tissues were fixed in neutral buffered formalin for 3 h then transferred to 100% ethanol. Tissues were paraffin-embedded and four μm cross sections were cut and mounted on poly-lysine slides and stored in slide boxes at room temperature.
# One slide for each specimen was stained for H&E to assess granulation-tissue formation and re-epithelialization of the wound gap.
# Samples collected on day 10 and 14 were stained with Trichrome Stain (Masson) Kit (Sigma, HT15) to evaluate collagen deposition and remodeling.
# Tissue sections were deparaffinized and hydrated to deionized (DI) water. Sections were incubated in preheated Bouin' Solution (Sigma, HT10-132) at 56° C. overnight and then thoroughly rinsed in tap water. Sections were stained in Weigert's Iron Hematoxylin solution (Sigma, HT10-79) for 15 min, washed, and counterstained with Biebrich Scarlet Acid Fuchsin solution. After washing, sections were incubated with Phosphotungstic-Phosphomolybdic acid solution for 15 min and then stained with Aniline Blue solution. Sections were dehydrated and cleared in xylene.
# Wound healing was evaluated on day 10 and day 14 after the procedure. H&E sections were scored for re-epithelialization using the following criteria: […]
compound,measurement,setting,value
"Cc1ccc(NC(=O)c2ccc(CN3CCN(C)CC3)cc2)cc1Nc1nccc(-c2cccnc2)n1 [imatinib mesylate, reference compound]",decrease of number of myofibroblasts,Tsk-1 mice,99%±15%
same,decrease of hypodermal thickness,Tsk-1 mice; compared to untreated mice,71%±7%
"Cc1ccc(NC(=O)c2ccc(CN3CCN(C)CC3)cc2)cc1Nc1nccc(-c2cccnc2)n1 [imatinib, reference compound]",reduction in dermal thickening,[1]; 3 weeks bleomycin,46%±5%
same,decrease of myofibroblast count,[1],51%±10%
"C[C@@H]1C[C@H]2[C@@H]3CCC4=CC(=O)C=C[C@]4(C)[C@@]3(F)[C@@H](O)C[C@]2(C)[C@@]1(O)C(=O)CO [Dexamethasone, reference compound]",loss of initial body weight mass,CD-IGS rats,about 10%
same,wound gap remaining open at day 10 post wounding,CD-IGS rats,approximately 70%

# Source: patent publication US8680076B2, “Methods of treatment, improvement and prevention using haloaryl substituted aminopurines” (Signal Pharmaceuticals, LLC, priority 2010, dated 2014)
